Where two headings read alike, the source gives them in different places.
Legend:
Assay type in all cases: cell-based
[1] = test system: Daudi (B lineage Burkitt's lymphoma, CD13 negative) cells; experiment: Inhibition of tritiated thymidine incorporation, 5 day, Daudi; details: 5 days
Description: (§1) Actinonin was purchased from Sigma (St. Louis, Mo.). Biotinylated-Actinonin and all analogs were synthesized. Actinonin stock solution was 5 mg/ml in 10% ethanol. Biotinylated-actinonin and all other analogs were diluted in 10% DMSO to give stock solutions in the range of 1-20 mg/ml.
(§2) Daudi (B lineage Burkitt's lymphoma, CD13 negative) and HL60 (acute myeloid leukemia, CD13 positive) cells were maintained in culture using RPMI 1640 supplemented with 10% heat-inactivated FBS (Omega Scientific, Inc., Tarzana, Calif.) and 1% L-glutamine (Gibco/Invitrogen, Carlsbad, Calif.) at 37° C. in a humidified atmosphere of 5% CO2. Cell viability was higher than 90%, and cells were free of mycoplasma contamination.
(§3) An aliquot of 200 ul of cells (10,000 cells/well) was washed and incubated at 37° C. in 96-well plates in the presence or absence of actinonin/analogs. Serial dilutions were made in complete media. After 5 days of incubation, 50 ul of 10 uCi/mL tritiated thymidine (PerkinElmer, Boston, Mass.) was added to each well and allowed to incorporate for 5 hours. Plates were frozen at −80° C. overnight and cells were harvested onto filtermats (Wallac, Finland) using a semi-automatic harvester (Skatron, Sterling, Va.). Filtermats were counted in a 1205 Betaplate™ liquid scintillation counter (Wallac, Finland). The reference numbers refer to those analogs disclosed in Example 6. Compounds 35, 42, 48, 52, 53, and 56 are effective at inhibiting cell growth.

[2] = test system: HL60 (acute myeloid leukemia, CD13 positive) cells; experiment: Inhibition of tritiated thymidine incorporation, 5 day, HL60; details: HL60, 5 days
Description: as §1, §2, §3

Daudi and HL60 cells = experiment: Thymidine incorporation, summary statement on cell growth (Daudi and HL60); details: summary of Tables 4 and 5
Description: as §1, §2, §3

[3] = Homo sapiens, 120 h, read-out: Daudi IC50 (uM), 5 day thymidine incorporation
[4] = Homo sapiens, 120 h, read-out: Daudi IC50 (ug/mL), 5 day thymidine incorporation
[5] = Homo sapiens, HL-60, 120 h, read-out: HL60 IC50 (uM), 5 day thymidine incorporation
[6] = Homo sapiens, HL-60, 120 h, read-out: HL60 IC50 (ug/mL), 5 day thymidine incorporation

Structure (SMILES): CCCCC[C@H](CC(=O)NO)C(=O)N[C@H](C(=O)N1CCC[C@H]1CN)C(C)C [Compound 53, N4-hydroxy-N1-(1-(2-methylamine-pyrrolidine-1-carbonyl)-2-methyl-propyl)-2-pentyl-succinamide]
- IC50 [1, 3]: 18.2 µM
- IC50 [1, 4]: 7 µg/mL
- IC50 [2, 5]: 26 µM
- IC50 [2, 6]: 10 µg/mL
- inhibiting cell growth (Daudi and HL60 cells): effective

Structure (SMILES): CCCC[C@@H](C=O)NC(=O)[C@H](CC(C)C)NC(=O)OCc1ccccc1 [Calpeptin, reference compound]
- IC50 [1, 3]: 16.6 µM
- IC50 [1, 4]: 6 µg/mL
- IC50 [2, 5]: 138 µM
- IC50 [2, 6]: 50 µg/mL

Structure (SMILES): CCCCC[C@H](CC(N)=O)C(=O)N[C@@H](CC(C)C)C(=O)N1CCC[C@H]1CO [Compound 49, N1-(1-(2-hydroxymethyl-pyrrolidine-1-carbonyl)-3-methyl-butyl)-2-pentyl-succinamide]
- IC50 [1, 3]: > 130 µM
- IC50 [1, 4]: > 50 µg/mL
- IC50 [2, 5]: > 130 µM
- IC50 [2, 6]: > 50 µg/mL

Structure (SMILES): CCCCC[C@H](CC(=O)N1CCCCC1)C(=O)N[C@@H](Cc1ccccc1)C(=O)N1CCC[C@H]1CO [Compound 64]
- IC50 [2, 5]: > 206 µM
- IC50 [2, 6]: > 100 µg/mL

Structure (SMILES): CCCCC[C@H](CC(=O)N(CC)CC)C(=O)N[C@@H](Cc1ccccc1)C(=O)N1CCC[C@H]1CO [Compound 57]
- IC50 [2, 5]: > 211 µM
- IC50 [2, 6]: > 100 µg/mL

Structure (SMILES): O=C(O)CNC(=O)C(CS)Cc1ccccc1 (racemic) [DL-Thiorphan, reference compound]
- Daudi IC50 (ug/mL), 5 day thymidine incorporation [1]: >100 µg/mL
- IC50 ([1]; read-out: Daudi IC50 (uM), 5 day thymidine incorporation): > 395 µM
- HL60 IC50 (ug/mL), 5 day thymidine incorporation [2]: >100 µg/mL
- IC50 ([2]; read-out: HL60 IC50 (uM), 5 day thymidine incorporation): > 395 µM

Structure (SMILES): CCCCC[C@H](CC(=O)NO)C(=O)N[C@H](C(=O)N1CCC[C@H]1C(=O)OC)C(C)C [Compound 55]
- IC50 [1, 3]: 0.97 µM
- IC50 [1, 4]: 0.402 µg/mL
- IC50 [2, 5]: 6.7 µM
- IC50 [2, 6]: 2.77 µg/mL

Structure (SMILES): CCCCC[C@H](CC(=O)NN(C)C)C(=O)N[C@@H](Cc1ccccc1)C(=O)N1CCC[C@H]1CO [Compound 60, 2-(N′,N′-dimethyl-hydrazinocarbonylmethyl)-heptanoic acid [1-benzyl-2-(2-hydroxymethyl-pyrrolidin-1-yl)-2-oxo-ethyl]-amide]
- IC50 [2, 5]: 196 µM
- IC50 [2, 6]: 90 µg/mL

Structure (SMILES): CCCCC[C@H](CC(=O)N1CCN(C)CC1)C(=O)N[C@@H](Cc1ccccc1)C(=O)N1CCC[C@H]1CO [Compound 62, 2-[2-(4-methyl-piperazin-1-yl)-2-oxo-ethyl]-heptanoic acid [1-benzyl-2-(2-hydroxymethyl-pyrrolidin-1-yl)-2-oxo-ethyl]-amide]
- IC50 [2, 5]: > 200 µM
- IC50 [2, 6]: > 100 µg/mL

Structure (SMILES): CCCCC[C@H](CC(=O)NCc1ccc(OC)cc1OC)C(=O)N[C@@H](Cc1ccccc1)C(=O)N1CCC[C@H]1CO [Compound 59]
- IC50 [2, 5]: > 176 µM
- IC50 [2, 6]: > 100 µg/mL

Structure (SMILES): CCCCC[C@H](CC(=O)NCc1ccc([N+](=O)[O-])cc1)C(=O)N[C@@H](Cc1ccccc1)C(=O)N1CCC[C@H]1CO [Compound 61]
- IC50 [2, 5]: > 181 µM
- IC50 [2, 6]: > 100 µg/mL

Structure (SMILES): CCCCC[C@H](CC(N)=O)C(=O)N[C@H](C(=O)N1CCC[C@H]1C)C(C)C (stereo in doubt) [Compound 51, N1-(1-(2-methyl-pyrrolidine-1-carbonyl)-2-methyl-propyl)-2-pentyl-succinamide]
- IC50 [1, 3]: 18.7 µM
- IC50 [1, 4]: 6.6 µg/mL
- IC50 [2, 5]: 19.5 µM
- IC50 [2, 6]: 6.9 µg/mL

Structure (SMILES): CCCCC[C@H](CC(=O)NCC)C(=O)N[C@@H](Cc1ccccc1)C(=O)N1CCC[C@H]1CO [Compound 58]
- IC50 [2, 5]: > 225 µM
- IC50 [2, 6]: > 100 µg/mL

Structure (SMILES): CCCCC[C@H](CC(=O)O)C(=O)N[C@@H](Cc1ccccc1)C(=O)N1CCC[C@H]1CO [Compound 54, 3-[1-(2-hydroxymethyl-pyrrolidin-1-yl)-2-benzylcarbamoyl]-octanoic acid]
- IC50 [2, 5]: > 239 µM
- IC50 [2, 6]: > 100 µg/mL

Structure (SMILES): CCCCC[C@H](CC(=O)N(C)OC)C(=O)N[C@@H](Cc1ccccc1)C(=O)N1CCC[C@H]1CO [Compound 65]
- IC50 [2, 5]: > 217 µM
- IC50 [2, 6]: > 100 µg/mL

Structure (SMILES): CCCCC[C@H](CC(=O)NOC)C(=O)N[C@@H](Cc1ccccc1)C(=O)N1CCC[C@H]1CO [Compound 63]
- IC50 [2, 5]: > 224 µM
- IC50 [2, 6]: > 100 µg/mL

Reference: patent publication US6660741B2, “Asymmetric synthesis of (S,S,R)-(-)-actinonin and its analogs and uses therefor” (Sloan-Kettering Institute for Cancer Research, priority 2001, dated 2003)
